Experimental data as given in patent publication US20130217702A1 (Richter Gedeon Nyrt., priority 2010, published 2013).

Key:
[1] = molecular target: T1, human recombinant bradykinin B1 receptor (Homo sapiens, UniProt P46663); assay: Human recombinant bradykinin B1 receptor competitive radioligand binding; settings: hB1 expressed in CHO cells, [3H]-[Des-Arg10] Kallidin radioligand; read-out: B1 binding
T1 construct: host or cells: CHO cells, clone hB1-A5
T1 sequence (P46663 1-353): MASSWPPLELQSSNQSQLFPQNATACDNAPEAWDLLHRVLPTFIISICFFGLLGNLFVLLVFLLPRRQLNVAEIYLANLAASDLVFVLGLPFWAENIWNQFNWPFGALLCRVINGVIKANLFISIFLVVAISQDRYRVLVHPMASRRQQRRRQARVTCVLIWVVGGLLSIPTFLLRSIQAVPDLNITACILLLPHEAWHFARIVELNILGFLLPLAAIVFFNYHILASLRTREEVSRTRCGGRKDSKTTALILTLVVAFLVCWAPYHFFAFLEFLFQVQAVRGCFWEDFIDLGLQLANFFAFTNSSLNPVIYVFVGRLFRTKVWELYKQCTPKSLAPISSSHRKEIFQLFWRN
How it was run: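 Competition radioligand binding on CHO-expressed hB1 membranes, using [3,4-prolyl-3,4-^3H(N)]-[Des-Arg^10] Kallidin as tracer, 15 min at 25° C. Excess Lys-des-Arg^9-Bradykinin (10 μM) set nonspecific binding. Sigmoidal fits of at least seven concentrations gave IC50, converted to Ki via Cheng-Prusoff; KD from Scatchard.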

[2] = molecular target: T2, recombinant human B1 receptors (Homo sapiens, UniProt P46663); assay: Functional assay: antagonist potency by cytosolic calcium measurement (plate reader fluorimeter) in CHO-B1 cells, agonist LysDABK; format: cell-based; settings: CHO-B1 cells, inhibition of LysDABK (EC80)-evoked [Ca2+]i elevation; read-out: B1 func.
T2 construct: host or cells: CHO (CHO-B1)
T2 sequence (P46663 1-353): T1 sequence (P46663 1-353)
How it was run: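 IC50 is the concentration giving half-maximal inhibition of the LysDABK (EC80) calcium response, fitted from at least three experiments. CHO cells stably expressing human B1 were dye-loaded, exposed to compound for 20-25 min, then read by fluo-4 fluorescence (ΔF/F) at 37 °C.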

Row | Compound | Ki [1] | IC50 [2]
1 | COc1cc(C(=O)NC2(C(=O)N[C@H](C)c3ccc(-n4c(-c5noc(C)n5)c(Cl)c5ccccc54)cc3)CC2)on1 [Example 41, (R)-3-Methoxy-isoxazole-5-carboxylic acid [1-(1-{4-[3-chloro-2-(5-methyl-[1,2,4]oxadiazol-3-yl)-indol-1-yl]-phenyl}-ethylcarbamoyl)-cyclopropyl]-amide] | < 20 nM | < 20 nM
2 | Cc1nc(-c2c(Cl)c3ccccc3n2-c2ccc(CNC(=O)C3(NC(=O)c4cc(C)n(C)n4)CC3)cc2)no1 [Example 148, 1,5-Dimethyl-1H-pyrazole-3-carboxylic acid (1-{4-[3-chloro-2-(5-methyl-[1,2,4]oxadiazol-3-yl)-indol-1-yl]-benzylcarbamoyl}-cyclopropyl)-amide] | < 20 nM | 20 to 100 nM
3 | Cc1nc(-c2c(Cl)c3ccccc3n2-c2ccc(CNC(=O)C3(NC(=O)c4conc4C)CC3)cc2)no1 [Example 181, 3-Methyl-isoxazole-4-carboxylic acid (1-{4-[3-chloro-2-(5-methyl-[1,2,4]oxadiazol-3-yl)-indol-1-yl]-benzylcarbamoyl}-cyclopropyl)-amide] | < 20 nM | < 20 nM
4 | Cc1nc(-c2c(Cl)c3cc(Cl)ccc3n2-c2ccc(CNC(=O)C3(NC(=O)C(F)(F)F)CC3)cc2)no1 [Example 65, 1-(2,2,2-Trifluoro-acetylamino)-cyclopropanecarboxylic acid 4-[3,5-dichloro-2-(5-methyl-[1,2,4]oxadiazo 1-3-yl)-indol-1-yl]-benzylamide] | < 20 nM | < 20 nM
5 | COc1cc(C(=O)NC2(C(=O)NCc3ccc(-n4c(-c5ncc(C)o5)c(Cl)c5ccccc54)cc3)CC2)on1 [Example 38, 3-Methoxy-isoxazole-5-carboxylic acid (1-{4-[3-chloro-2-(5-methyl-oxazol-2-yl)-indol-1-yl]-benzylcarbamoyl}-cyclopropyl)-amide] | < 20 nM | 20 to 100 nM
6 | Cc1nc(-c2c(Cl)c3ccccc3n2-c2ccc([C@@H](C)NC(=O)C3(NC(=O)C(F)(F)F)CC3)c(F)c2)no1 [Example 190, 1-(2,2,2-Trifluoro-acetylamino)-cyclopropanecarboxylic acid ((R)-1-{4-[3-chloro-2-(5-methyl-[1,2,4]oxadiazol-3-yl)-indol-1-yl]-2-fluoro-phenyl}-ethyl)-amide] | < 20 nM | < 20 nM
7 | Cc1cc(C(=O)NC2(C(=O)NCc3ccc(-n4c(-c5noc(C)n5)c(Cl)c5ccccc54)cc3)CC2)n[nH]1 [Example 152, 5-Methyl-1H-pyrazole-3-carboxylic acid (1-{4-[3-chloro-2-(5-methyl-[1,2,4]oxadiazol-3-yl)-indol-1-yl]-benzylcarbamoyl}-cyclopropyl)-amide] | < 20 nM | 20 to 100 nM
8 | COc1cc(C(=O)NC2(C(=O)NCc3ccc(-n4c(-c5nc(C)no5)c(Cl)c5ccccc54)cn3)CC2)on1 [Example 58, 3-Methoxy-isoxazole-5-carboxylic acid [1-({5-[3-chloro-2-(3-methyl-[1,2,4]oxadiazol-5-yl)-indol-1-yl]-pyridin-2-ylmethyl}-carbamoyl)-cyclopropyl]-amide] | < 20 nM | < 20 nM
9 | N#Cc1cc2cc(Cl)ccc2n1-c1ccc(CNC(=O)C2(NC(=O)c3cncc(C(F)(F)F)c3)CC2)cc1 [Example 100, N-{1-[4-(5-Chloro-2-cyano-indol-1-yl)-benzylcarbamoyl]-cyclopropyl}-5-trifluoromethyl-nicotinamide] | < 20 nM | < 20 nM
10 | COc1cc(C(=O)NC2(C(=O)NCc3ccc(-n4c(-c5nnn(C)n5)c(Cl)c5cc(F)ccc54)cn3)CC2)on1 [Example 59, 3-Methoxy-isoxazole-5-carboxylic acid [1-({5-[3-chloro-5-fluoro-2-(2-methyl-2H-tetrazol-5-yl)-indol-1-yl]-pyridin-2-ylmethyl}-carbamoyl)-cyclopropyl]-amide] | < 20 nM | < 20 nM
11 | Cc1cc(C(=O)NC2(C(=O)NCc3ccc(-n4c(-c5noc(C)n5)c(Cl)c5cc(F)ccc54)cc3)CC2)no1 [Example 88, 5-Methyl-isoxazole-3-carboxylic acid (1-{4-[3-chloro-5-fluoro-2-(5-methyl-[1,2,4]oxadiazol-3-yl)-indol-1-yl]-benzylcarbamoyl}-cyclopropyl)-amide] | < 20 nM | < 20 nM
12 | Cc1nc(-c2c(Cl)c3ccccc3n2-c2ccc(CNC(=O)C3(NC(=O)c4ccc(=O)[nH]c4)CC3)cc2)no1 [Example 160, 6-Oxo-1,6-dihydro-pyridine-3-carboxylic acid (1-{4-[3-chloro-2-(5-methyl-[1,2,4]oxadiazol-3-yl)-indol-1-yl]-benzylcarbamoyl}-cyclopropyl)-amide] | < 20 nM | < 20 nM
13 | COC(=O)c1c(Cl)c2c(F)cccc2n1-c1ccc(CNC(=O)C2(NC(=O)c3cc(OC)no3)CC2)cc1 [Example 68, 3-Chloro-4-fluoro-1-{4-[({1-[(3-methoxy-isoxazole-5-carbonyl)-amino]-cyclo-propanecarbonyl}-amino)-methyl]-phenyl}-1H-indole-2-carboxylic acid methyl ester] | < 20 nM | < 20 nM
14 | COc1cc(C(=O)NC2(C(=O)NCc3ccc(-n4c(-c5noc(C)n5)c(C#N)c5ccccc54)cc3)CC2)on1 [Example 21, 3-Methoxy-isoxazole-5-carboxylic acid (1-{4-[3-cyano-2-(5-methyl-[1,2,4]oxadiazol-3-yl)-indol-1-yl]-benzylcarbamoyl}-cyclopropyl)-amide] | < 20 nM | < 20 nM
15 | Cc1nc(-c2c(Cl)c3ccccc3n2-c2ccc(CNC(=O)C3(NC(=O)c4cccnc4Cl)CC3)cc2)no1 [Example 153, 2-Chloro-N-(1-{4-[3-chloro-2-(5-methyl-[1,2,4]oxadiazol-3-yl)-indol-1-yl]-benzylcarbamoyl}-cyclopropyl)-nicotinamide] | < 20 nM | < 20 nM
16 | Cc1nc(-c2cc3cc(Cl)ccc3n2-c2ccc(CNC(=O)C3(NC(=O)CC(F)(F)F)CC3)cc2)no1 [Example 127, 1-(3,3,3-Trifluoro-propionylamino)-cyclopropanecarboxylic acid 4-[5-chloro-2-(5-methyl-[1,2,4]oxadiazol-3-yl)-indol-1-yl]-benzylamide] | < 20 nM | < 20 nM
17 | COC(=O)c1c(Cl)c2c(F)cccc2n1-c1ccc(CNC(=O)C2(NC(=O)C(F)(F)F)CC2)cc1 [Example 69, 3-Chloro-4-fluoro-1-[4-({[1-(2,2,2-trifluoro-acetylamino)-cyclopropanecarbonyl]-amino}-methyl)-phenyl]-1H-indole-2-carboxylic acid methyl ester] | 20 to 100 nM | 20 to 100 nM
18 | COc1cc(C(=O)NC2(C(=O)NCc3ccc(-n4c(-c5nnc(C)o5)c(Cl)c5ccccc54)cc3)CC2)on1 [Example 5, 3-Methoxy-N-[1-({4-[3-chloro-2-(5-methyl-1,3,4-oxadiazol-2-yl)-1H-indol-1-yl]benzyl}carbamoyl)cyclopropyl]isoxazole-5-carboxamide] | < 20 nM | < 20 nM
19 | COc1cc(C(=O)NC2(C(=O)NCc3ccc(-n4c(-c5nnn(C)n5)c(Cl)c5ccccc54)cc3F)CC2)on1 [Example 15, 3-Methoxy-isoxazole-5-carboxylic acid (1-{4-[3-chloro-2-(2-methyl-2H-tetrazol-5-yl)-indol-1-yl]-2-fluorobenzylcarbamoyl}-cyclopropyl)-amide] | < 20 nM | < 20 nM
20 | Cc1cnc(C(=O)NC2(C(=O)NCc3ccc(-n4c(-c5noc(C)n5)cc5cc(F)ccc54)cc3F)CC2)cn1 [Example 131, 5-Methyl-pyrazine-2-carboxylic acid (1-{2-fluoro-4-[5-fluoro-2-(5-methyl-[1,2,4]oxadiazol-3-yl)-indol-1-yl]-benzylcarbamoyl}-cyclopropyl)-amide] | < 20 nM | 20 to 100 nM
21 | Cn1nnc(-c2c(Cl)c3ccccc3n2-c2ccc(CNC(=O)C3(NC(=O)c4cncc(C(F)(F)F)c4)CC3)cc2)n1 [Example 30, N-(1-{4-[3-chloro-2-(2-methyl-2H-tetrazol-5-yl)-indol-1-yl]-benzylcarbamoyl}-cyclopropyl)-5-trifluoromethyl-nicotinamide] | < 20 nM | < 20 nM
22 | Cc1nc(-c2cc3cc(F)ccc3n2-c2ccc(CNC(=O)C3(NC(=O)c4cncc(C(F)(F)F)c4)CC3)c(F)c2)no1 [Example 132, N-(1-{2-Fluoro-4-[5-fluoro-2-(5-methyl-[1,2,4]oxadiazol-3-yl)-indol-1-yl]-benzylcarbamoyl}-cyclopropyl)-5-trifluoromethyl-nicotinamide] | < 20 nM | < 20 nM
23 | Cc1nc(-c2c(Cl)c3ccccc3n2-c2ccc(CNC(=O)C3(NC(=O)CC(F)(F)F)CC3)cc2)no1 [Example 163, 1-(3,3,3-Trifluoro-propionylamino)-cyclopropanecarboxylic acid 4-[3-chloro-2-(5-methyl-[1,2,4]oxadiazol-3-yl)-indol-1-yl]-benzylamide] | < 20 nM | < 20 nM
